In patent publication US11918582B2 (RAPT Therapeutics, Inc., priority 2021, dated 2024) one finds IC50 data, which are given here for 22 molecules.

The target in this assay is T1, human HPK1 (MAP4K1) (Homo sapiens, UniProt Q92918).
T1 construct: Recombinant human HPK1 kinase domain was obtained from ThermoFisher (Cat. #PV6357) and SignalChem (Cat. #M23-11G); purchased ThermoFisher; SignalChem PV6357; M23-11G
T1 sequence (Q92918 17-274 limits assumed): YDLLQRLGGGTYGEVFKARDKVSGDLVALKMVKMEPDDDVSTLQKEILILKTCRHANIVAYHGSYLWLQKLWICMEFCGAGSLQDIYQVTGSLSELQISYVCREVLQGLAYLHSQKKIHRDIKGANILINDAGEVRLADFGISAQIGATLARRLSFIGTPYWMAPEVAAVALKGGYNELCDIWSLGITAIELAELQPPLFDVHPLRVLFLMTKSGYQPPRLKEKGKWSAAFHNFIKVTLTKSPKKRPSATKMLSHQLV
The experiment in a line: Biochemical assay for activity against HPK1 (ADP-Glo, MBP substrate). Particulars: recombinant human HPK1 kinase domain, 1 nM enzyme, ADP-Glo luminescence. The source says: These compounds are made by the synthetic methods described earlier herein. Example 227 Biochemical Assay for Testing Compounds for Activity against HPK1
The enzymatic activity of human HPK1 (MAP4K1) was monitored in a biochemical assay in the presence or absence of compounds, using a peptide substrate (myelin basic protein, MBP), with an ADP-Glo assay kit (Promega, Cat. #V9103). An increase in phosphorylation of the peptide by HPK1 was indicative of its kinase activity.
Recombinant human HPK1 kinase domain was obtained from ThermoFisher (Cat. #PV6357) and SignalChem (Cat. #M23-11G). A 1 nM HPK1 kinase enzyme solution was prepared from the HPK1 stock received from the commercial supplier using an assay buffer containing 50 mM HEPES (4-(2-hydroxyethyl)-1-piperazineethanesulfonic acid) pH 7.5 (Fisher Scientific, Cat. #H1035), 150 mM NaCl (Fisher Scientific, Cat. #50843067), 3 mM TCEP-HCl (Tris(2-carboxyethyl)phosphine hydrochloride; Fisher Scientific, Cat. #PIPG82080), 10 mM MgCl2 (Fisher Scientific, Cat. #AM9530G), 0.005% Tween-20 (Fisher Scientific, Cat. #BP337500) and 0.01% BSA (bovine serum albumin; ThermoFisher, Cat. #15260037), in ultra-pure water. The final concentration of the assay buffer was 770 nM. A 5 mM stock solution of the peptide substrate was prepared using […] MBP (Myelin Basic Protein, Active Motif, Cat. #31314), 10 mM ATP (adenosine 5′-triphosphate; Sigma-Aldrich, Cat. #GE27-2056-01) and of assay buffer.
Test compounds were dissolved in DMSO (dimethyl sulfoxide) at 10 mM and then serial dilutions were prepared using a ViaFlow assist multichannel dispenser (Integra ViaFlo). 20 nL of test compounds at various concentrations were dispensed into a 1536-well assay plate (Corning Cat. #7247) using an Echo Nanoliter dispenser (Labcyte ECHO 550). […] of a 1 nM solution of HPK1 kinase enzyme diluted in assay buffer was added to the compound-containing plate using a Mantis Microliter dispenser (Formulatrix Mantis), covered with a lid, and incubated for 15 minutes at room temperature. 50 nL of a 5 mM stock solution of the peptide substrate (MBP) were added using the Echo Nanoliter dispenser. The plate was covered with a lid, centrifugated at 500 rpm for 1 minute and incubated for 2 hours at room temperature. […] of ADP-Glo reagent A was added using the Mantis Microliter dispenser, centrifugated at 500 rpm for 30 seconds and incubated for 40 minutes at room temperature. […] of ADP-Glo reagent B was added using the Mantis Microliter dispenser, centrifugated at 500 rpm for 30 seconds and incubated for 30 minutes at room temperature. Peptide phosphorylation was measured by luminescence on an Envision plate reader (PerkinElmer).
The HPK1 biochemical IC50 activity levels of the compounds of Examples 1-225 were tested using this assay and are shown in Table 2.

Consider `CCN1CCc2cc(OC)c(Nc3ncc4cnn([C@H]5CC[C@H](CO)CC5)c4n3)cc2C1` [Example 168, [4-[6-[(2-ethyl-6-methoxy-3,4-dihydro-1H-isoquinolin-7-yl)amino]pyrazolo[3,4-d]pyrimidin-1-yl]cyclohexyl]methanol], for which the IC50 was less than 100 nM.
In the case of `COc1cc2c(cc1Nc1ncc3cnn([C@H]4CC[C@@H](C(N)=O)CC4)c3n1)CN(C)CC2` [Example 27, (1s,4s)-4-(6-((6-methoxy-2-methyl-1,2,3,4-tetrahydroisoquinolin-7-yl)amino)-1H-pyrazolo[3,4-d]pyrimidin-1-yl)cyclohexane-1-carboxamide], the IC50 was less than 100 nM.
As to `COc1cc2c(cc1Nc1ncc3cnn([C@H]4CC[C@H](C(=O)N(C)C)CC4)c3n1)CN(C)CC2` [Example 55, (1r,4r)-4-(6-((6-methoxy-2-methyl-1,2,3,4-tetrahydroisoquinolin-7-yl)amino)-1H-pyrazolo[3,4-d]pyrimidin-1-yl)-N,N-dimethylcyclohexane-1-carboxamide], the IC50 is less than 100 nM.
In the case of `COc1cc2c(cc1Nc1ncc3cnn(C[C@H]4CCC[C@@H]4C(=O)O)c3n1)CN(C)CC2` [Example 158, (1S,2S)-2-[[6-[(6-methoxy-2-methyl-3,4-dihydro-1H-isoquinolin-7-yl)amino]pyrazolo[3,4-d]pyrimidin-1-yl]methyl]cyclopentanecarboxylic Acid], the IC50 is less than 100 nM.
On to `COc1cc2c(cc1Nc1ncc3cnn([C@H]4C[C@@H](CNC(C)=O)C4)c3n1)CN(C)CC2` [Example 126, N-((cis-3-(6-((6-methoxy-2-methyl-1,2,3,4-tetrahydroisoquinolin-7-yl)amino)-1H-pyrazolo[3,4-d]pyrimidin-1-yl)cyclobutyl)methyl)acetamide], for which the IC50 lay in the range of 100 to 250 nM.
Take `COc1cc2c(cc1Nc1ncc3c(C)nn(C[C@@H]4CCCN4S(C)(=O)=O)c3n1)CN(C)CC2` [Example 116, (S)-6-methoxy-2-methyl-N-(3-methyl-1-((1-(methylsulfonyl)pyrrolidin-2-yl)methyl)-1H-pyrazolo[3,4-d]pyrimidin-6-yl)-1,2,3,4-tetrahydroisoquinolin-7-amine]: the IC50 was 100 to 250 nM.
Regarding `COc1cc2c(cc1Nc1ncc3cnn([C@H]4CC[C@H](O)CC4)c3n1)CNCC2` [Example 152, trans-4-(6-((6-methoxy-1,2,3,4-tetrahydroisoquinolin-7-yl)amino)-1H-pyrazolo[3,4-d]pyrimidin-1-yl)cyclohexan-1-ol], the IC50 is less than 100 nM.
Then `COc1cc2c(cc1Nc1ncc3cnn([C@H]4C[C@@H](CO)C4)c3n1)CN(C)CC2` [Example 66, cis-[3-[6-[(6-methoxy-2-methyl-3,4-dihydro-1H-isoquinolin-7-yl)amino]pyrazolo[3,4-d]pyrimidin-1-yl]cyclobutyl]methanol], with less than 100 nM; and `COc1cc2c(cc1Nc1ncc3cnn(C[C@H]4C[C@@H](NC(C)=O)C4)c3n1)CN(C)CC2` [Example 119, cis N-(3-((6-((6-methoxy-2-methyl-1,2,3,4-tetrahydroisoquinolin-7-yl)amino)-1H-pyrazolo[3,4-d]pyrimidin-1-yl)methyl)cyclobutyl)acetamide], with less than 100 nM; and `COc1cc2c(cc1Nc1ncc3cnn(C[C@@H]4CCC(C)(C)N4C(C)=O)c3n1)CN(C)CC2` [Example 176, 1-[(5S)-5-[[6-[(6-methoxy-2-methyl-3,4-dihydro-1H-isoquinolin-7-yl)amino]pyrazolo[3,4-d]pyrimidin-1-yl]ymethyl]-2,2-dimethyl-pyrrolidin-1-yl]ethenone], with less than 100 nM.
`COc1cc2c(cc1Nc1ncc3cnn(C[C@@H]4CCCN4S(C)(=O)=O)c3n1)CN(C)CC2` [Example 111, (S)-6-methoxy-2-methyl-N-(1-((1-(methylsulfonyl)228yrrolidine-2-yl)methyl)-1H-pyrazolo[3,4-d]pyrimidin-6-yl)-1,2,3,4-tetrahydroisoquinolin-7-amine]: the IC50 was less than 100 nM.
As to `CN1CCc2ccc(Nc3ncc4cnn(C)c4n3)cc2C1` [Example 5, 2-methyl-N-(1-methylpyrazolo[3,4-d]pyrimidin-6-yl)-3,4-dihydro-1H-isoquinolin-7-amine], the IC50 is less than 100 nM.
Turning to `COc1cc2c(cc1Nc1ncc3cnn(C[C@@H](C)NC(C)=O)c3n1)CN(C)CC2` [Example 97, N-[(1R)-2-[6-[(6-methoxy-2-methyl-3,4-dihydro-1H-isoquinolin-7-yl)amino]pyrazolo[3,4-d]pyrimidin-1-yl]-1-methyl-ethyl]acetamide], the IC50 lay within 100 to 250 nM.
Then `COc1cc2c(cc1Nc1ncc3cnn([C@H]4CCN(C(C)=O)C[C@H]4C)c3n1)CN(C)CC2` [Example 210, 1-((3R,4S)-4-(6-((6-methoxy-2-methyl-1,2,3,4-tetrahydroisoquinolin-7-yl)amino)-1H-pyrazolo[3,4-d]pyrimidin-1-yl)-3-methylpiperidin-1-yl)ethan-1-one], with less than 100 nM; and `COc1cc2c(cc1Nc1ncc3cnn(CCNC(C)=O)c3n1)CN(C)CC2` [Example 87, N-[2-[6-[(6-methoxy-2-methyl-3,4-dihydro-1H-isoquinolin-7-yl)amino]pyrazolo[3,4-d]pyrimidin-1-yl]ethyl]acetamide], with less than 100 nM.
`COc1cc2c(cc1Nc1ncc3cnn([C@H]4CC[C@H](NC(C)=O)CC4)c3n1)CN(C)CC2` [Example 69, trans-N-[4-[6-[(6-methoxy-2-methyl-3,4-dihydro-1H-isoquinolin-7-yl)amino]pyrazolo[3,4-d]pyrimidin-1-yl]cyclohexyl]acetamide]: the IC50 was less than 100 nM.
Consider `CN1CCc2c(cc(Nc3ncc4cnn([C@H]5CC[C@H](CO)CC5)c4n3)cc2C(F)(F)F)C1` [Example 57, ((1r,4r)-4-(6-((2-methyl-5-(trifluoromethyl)-1,2,3,4-tetrahydroisoquinolin-7-yl)amino)-1H-pyrazolo[3,4-d]pyrimidin-1-yl)cyclohexyl)methanol], for which the IC50 was less than 100 nM.
Consider `COc1cc2c(cc1Nc1ncc3c(C)nn([C@H]4C[C@H](CNS(C)(=O)=O)C4)c3n1)CN(C)CC2` [Example 132, N-(((1r,3r)-3-(6-((6-methoxy-2-methyl-1,2,3,4-tetrahydroisoquinolin-7-yl)amino)-3-methyl-1H-pyrazolo[3,4-d]pyrimidin-1-yl)cyclobutyl)methyl)methanesulfonamide], for which the IC50 is less than 100 nM.
As to `COc1cc2c(cc1Nc1ncc3cnn(C4CC5(CCN(C(C)=O)CC5)C4)c3n1)CN(C)CC2` [Example 81, 1-(2-(6-((6-methoxy-2-methyl-1,2,3,4-tetrahydroisoquinolin-7-yl)amino)-1H-pyrazolo[3,4-d]pyrimidin-1-yl)-7-azaspiro[3.5]nonan-7-yl)ethan-1-one], the IC50 was less than 100 nM.
For `COc1cc2c(cc1Nc1ncc3cnn(C[C@H]4[C@@H](O)CCN4C(C)=O)c3n1)CN(C)CC2` [Example 131], the IC50 is more than 251 nM.
With `COc1cc2c(cc1Nc1ncc3cnn(C[C@@H]4[C@@H](C)CCN4C(C)=O)c3n1)CN(C)CC2` (racemic) [Example 214, 1-[2-[[6-[(6-methoxy-2-methyl-3,4-dihydro-1H-isoquinolin-7-yl)amino]pyrazolo[3,4-d]pyrimidin-1-yl]methyl]-3-methyl-pyrrolidin-1-yl]ethenone], the IC50 is less than 100 nM.
Regarding `COc1cc2c(cc1Nc1ncc3cnn(C[C@@H]4CCCN4C(C)=O)c3n1)C(C(F)(F)F)N(C)CC2` (stereo partly drawn) [Example 208, 1-((2S)-2-((6-((6-methoxy-2-methyl-1-(trifluoromethyl)-1,2,3,4-tetrahydroisoquinolin-7-yl)amino)-1H-pyrazolo[3,4-d]pyrimidin-1-yl)methyl)pyrrolidin-1-yl)ethan-1-one], the 50% inhibitory concentration (IC50) was less than 100 nM.
